From patent US11634624B2, “Surfactants for enhanced oil recovery” (MOL MAGYAR OLAJ- ÉS GÁZIPARI NYILVÁNOSAN MŰKÖDŐ …, priority 2018, dated 2023) come the findings set out here.

The format of data set [1] is physicochemical. The source says: For the test, the prepared surfactant solution samples were filled into a clean, dry cuvette and then scattered in a spectrophotometer at 500 nm wavelength using a nephelometric pad at ambient temperature. The turbidity of the sample to be tested is compared to the light scattering of pure water (0%) and the reference opal body (100%).

Data set [2] can be described thus: Interfacial tension (IFT), spinning drop. The settings on record: for IFT (mN/m), concentration 0.1 g/l / IFT (mN/m), concentration 1 g/l / IFT (mN/m), concentration 5 g/l: commercial surfactants; for IFT (mN/m) 0.1 g/l / IFT (mN/m) 1.0 g/l: 40° C., 4500 rpm. Format: physicochemical. How it is done:
The interfacial tension (IFT) in the following examples is measured in a spinning drop type tensile meter at 4500 rpm at 40° C. temperature. The test capillary was filled with various concentrations of surfactant solution into which a drop of oil of Algyő type oil was injected through a syringe. In steady state, the interfacial tension between the surfactant solution and the crude oil can be calculated based on the geometric dimensions of the droplet taken by the oil drop.

Data set [3] in a line: Thermal (heat/hydrolytic) stability, 90° C., 3 hours, transmittance. Format: physicochemical. The settings on record: for Heat stability (90° C., 3 hours), appearance: appearance symbol; for Heat stability (90° C., 3 hours) (%): turbidity number.
Data set [4] can be described thus: Oil solubility (turbidity of 1% in model oil). Format: physicochemical. Conditions: for Solubility in oil, appearance / dissolution: symbol or word. The procedure:
In the course of the test, 0.2 g of the surfactant to be tested is weighed into 20 g of model oil and then dissolved for 1 hour at 60° C. with vigorous stirring. After cooling, the samples were poured into a clean, dry cuvette and then scattered at 500 nm with a spectrophotometer at ambient temperature. As reference, the light scattering of pure oil (0%) and standard opal body (100%) is used.

Consider “2-methylpentane-1,5-diammonium-bis(C14-C17 sec-alkylsulphonate) [Example 5]”, for which, in data set [1], the Water solubility was 100%; the “Water solubility (%)” value turned out to be 100%; the “Water solubility, appearance” value is listed as “m”.
For `CCCCCCCCCCCCc1ccc(S(=O)(=O)[O-])cc1.[Na+]` [DBSNa-salt 30% solution, Sodium salt of dodecylbenzylsulfonic acid, reference compound], in data set [2], the “IFT (mN/m), concentration 0.1 g/l” value is 0.34 mN/m; the “IFT (mN/m), concentration 1 g/l” value stood at 0.63 mN/m; the “IFT (mN/m), concentration 5 g/l” value is recorded as 0.88 mN/m.
On to `CCCCCCCCCCCCc1ccc(S(=O)(=O)O)cc1.CCCCCCCCCCCCc1ccc(S(=O)(=O)O)cc1.NCCCCCCN` [Example 21], for which, in data set [1], the “Water solubility (%)” value was determined as 100% and the “Water solubility, appearance” value is “m”. For the same molecule, in data set [2], the “IFT (mN/m) 0.1 g/l” value worked out at 0.019 mN/m and the “IFT (mN/m) 1.0 g/l” value was found to be 0.015 mN/m. Further, in data set [3], the “Heat stability (90° C., 3 hours), appearance” value (from here on “Heat stability … appearance”) is listed as “m” and the “Heat stability (90° C., 3 hours) (%)” value was 100%. Moreover, in data set [4], the “Solubility in oil, appearance / dissolution” value is “n.o”.
On to `CCCCCCCCCCCCc1ccc(S(=O)(=O)O)cc1.CCCCCCCCCCCCc1ccc(S(=O)(=O)O)cc1.NCCCCN` [Example 23], for which, in data set [1], the “Water solubility (%)” value was 100% and the “Water solubility, appearance” value is on record as “m”. In data set [2], the “IFT (mN/m) 0.1 g/l” value is 0.120 mN/m and the “IFT (mN/m) 1.0 g/l” value was determined as 0.170 mN/m. For the same molecule, in data set [3], the “Heat stability … appearance” value is reported as “b” and the “Heat stability (90° C., 3 hours) (%)” value worked out at 20%. Also, in data set [4], the “Solubility in oil, appearance / dissolution” value was “n.o”.
Regarding `CCCCCCCCCCCCc1ccc(S(=O)(=O)O)cc1.CCCCCCCCCCCCc1ccc(S(=O)(=O)O)cc1.NCCCOCCCCOCCCN` [Example 24], in data set [1], the “Water solubility (%)” value is recorded as 100% and the “Water solubility, appearance” value is “m”. In data set [2], the “IFT (mN/m) 0.1 g/l” value is listed as 0.042 mN/m and the “IFT (mN/m) 1.0 g/l” value came out at 0.103 mN/m. Also, in data set [3], the “Heat stability … appearance” value is reported as “op” and the “Heat stability (90° C., 3 hours) (%)” value was 100%. In data set [4], the “Solubility in oil, appearance / dissolution” value was “op”. Also, the “Solubility in oil (%)” value in data set [4] (turbidity number) is reported as 18%.
As for `CCCCCCCCCCCCc1ccc(S(=O)(=O)O)cc1.CCCCCCCCCCCCc1ccc(S(=O)(=O)O)cc1.CN(C)CCCNCCCN(C)C.Cl` [Example 38], in data set [2], the “IFT (mN/m) 0.1 g/l” value came to 0.15 mN/m and the “IFT (mN/m) 1.0 g/l” value turned out to be 0.16 mN/m. Also, in data set [3], the “Heat stability … appearance” value was “op” and the “Heat stability (90° C., 3 hours) (%)” value is on record as 31%.
As for `CC(O)CO` (stereo not drawn) [Propylene glycol, reference compound], in data set [2], the “IFT (mN/m), concentration 0.1 g/l” value turned out to be 11.53 mN/m; the “IFT (mN/m), concentration 1 g/l” value turned out to be 16.14 mN/m; the “IFT (mN/m), concentration 5 g/l” value stood at 15.4 mN/m.
The molecule “bis(C14-C17 sec-alkyl)-sulphonate-poly (propylene-glycol)-bis-(2-ammonium-propyl)-ether salt [Example 3]” had a Water solubility in data set [1] of 4%.
